Source: ChEMBL document CHEMBL5241106, “Discovery of a Dual Tubulin and Poly(ADP-Ribose) Polymerase-1 Inhibitor by Structure-Based Pharmacophore Modeling, Virtual Screening, Molecular Docking, and Biological Evaluation” (J Med Chem, 2021)
Activity calls are given as the source filed them. The rule behind the calls is not given here.

Tests used:
Tubulin (Homo sapiens) = Tubulin (Homo sapiens) (UniProt P68371+Q9H4B7+P0DPH7+P68366+Q13509+Q71U36+P04350+Q3ZCM7+P07437+P68363+Q9BQE3+Q6PEY2+Q13885+Q9BVA1+Q9BUF5); experiment: Inhibition of tubulin polymerization (unknown origin) at 10 uM by turbidimetric analysis; assay type: protein-complex assay
MDA-MB-231 [1] = experiment: Induction of apoptosis in human MDA-MB-231 cells assessed as viable cells at 2.5 uM incubated for 48 hrs by Annexin V-FITC/PI staining based flow cytometry (reference value: 91.4%); assay type: functional; details: read-out: Activity
MDA-MB-231 [2] = experiment: Induction of apoptosis in human MDA-MB-231 cells assessed as necrotic cells at 2.5 uM incubated for 48 hrs by Annexin V-FITC/PI staining based flow cytometry (reference value: 1.86%); assay type: functional
[3] = molecular target: Poly [ADP-ribose] polymerase 1 (Homo sapiens, UniProt P09874); experiment: Inhibition of PARP1 (unknown origin) using [3H]NAD+ as substrate incubated for 15 mins by scintillation counting analysis
MDA-MB-231 [4] = experiment: Cytotoxicity against human MDA-MB-231 cells assessed as inhibition of cell growth incubated for 72 hrs by MTT assay; assay type: functional, cell-based
[5] = Cytotoxicity against human MCF-10A cells assessed as inhibition of cell growth incubated for 72 hrs by MTT assay; assay type: toxicity, cell-based
MDA-MB-231 [6] = experiment: Induction of apoptosis in human MDA-MB-231 cells assessed as late apoptotic cells at 2.5 uM incubated for 48 hrs by Annexin V-FITC/PI staining based flow cytometry (reference value: 5.06%); assay type: functional
MDA-MB-231 [7] = experiment: Induction of apoptosis in human MDA-MB-231 cells incubated for 24 hrs by DAPI staining based confocal laser microscopy; assay type: functional, cell-based
MDA-MB-231 [8] = experiment: Induction of apoptosis in human MDA-MB-231 cells assessed as early apoptotic cells at 2.5 uM incubated for 48 hrs by Annexin V-FITC/PI staining based flow cytometry (reference value: 1.71%); assay type: functional
Tubulin = experiment: Inhibition of tubulin polymerization (unknown origin) by turbidimetric analysis; assay type: protein-complex assay, Homo sapiens

Poly [ADP-ribose] polymerase 1, sequence (P09874 whole entry): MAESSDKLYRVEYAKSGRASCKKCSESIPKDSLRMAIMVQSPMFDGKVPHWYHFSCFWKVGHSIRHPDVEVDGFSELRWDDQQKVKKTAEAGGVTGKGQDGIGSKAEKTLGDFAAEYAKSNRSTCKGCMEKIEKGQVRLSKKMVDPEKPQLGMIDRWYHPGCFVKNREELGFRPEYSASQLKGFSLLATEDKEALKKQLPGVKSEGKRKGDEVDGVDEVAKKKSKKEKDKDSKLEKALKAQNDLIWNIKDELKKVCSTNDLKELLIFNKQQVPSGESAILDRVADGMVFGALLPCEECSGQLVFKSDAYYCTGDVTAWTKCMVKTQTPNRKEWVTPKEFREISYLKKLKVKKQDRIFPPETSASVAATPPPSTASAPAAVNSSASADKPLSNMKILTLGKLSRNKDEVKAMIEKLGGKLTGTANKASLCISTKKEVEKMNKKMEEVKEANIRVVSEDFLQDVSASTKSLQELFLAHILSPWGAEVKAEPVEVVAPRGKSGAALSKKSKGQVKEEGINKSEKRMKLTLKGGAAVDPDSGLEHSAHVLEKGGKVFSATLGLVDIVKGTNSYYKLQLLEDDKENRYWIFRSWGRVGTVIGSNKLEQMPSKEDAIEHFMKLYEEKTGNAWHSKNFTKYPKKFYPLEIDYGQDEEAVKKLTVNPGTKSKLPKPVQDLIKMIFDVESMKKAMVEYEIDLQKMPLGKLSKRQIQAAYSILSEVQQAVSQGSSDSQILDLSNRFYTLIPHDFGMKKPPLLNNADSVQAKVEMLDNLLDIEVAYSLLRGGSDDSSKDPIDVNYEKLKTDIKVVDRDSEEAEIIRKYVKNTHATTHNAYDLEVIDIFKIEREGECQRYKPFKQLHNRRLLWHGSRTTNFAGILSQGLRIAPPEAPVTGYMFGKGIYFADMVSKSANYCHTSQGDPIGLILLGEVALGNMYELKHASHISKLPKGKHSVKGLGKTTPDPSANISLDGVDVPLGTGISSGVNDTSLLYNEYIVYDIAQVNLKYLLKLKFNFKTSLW

Row | SMILES | inhibition (Tubulin (Homo sapiens)) | other results
1 | O=c1[nH]c(/C=C/c2ccccc2)nc2ccccc12 | 82% | –
2 | Cc1ccc(-c2nc3ccccc3c(=O)[nH]2)cc1 | 45% | –
3 | COc1cc(/C=C/c2nc(O)c3ccccc3n2)ccc1O | 69% | –
4 | COc1ccc(-c2nc(O)c3ccccc3n2)cc1 | 47% | –
5 | O=c1[nH]c(/C=C/c2cccc([N+](=O)[O-])c2)nc2ccccc12 | 65% | –
6 | COc1cc2c(c(OC)c1OC)-c1ccc(OC)c(=O)cc1[C@@H](NC(C)=O)CC2 [COLCHICINE] | – | viability at 2.5 µM (MDA-MB-231 [1]): 88%; Activity (MDA-MB-231 [2]): 2.04%; IC50 [3]: Not Active; Activity (MDA-MB-231 [4]): Active; IC50 at 72 h [5]: 6 nM; Activity (MDA-MB-231 [6]): 8.1%; Activity (MDA-MB-231 [7]): Active; Activity (MDA-MB-231 [8]): 1.89%
7 | O=c1[nH]c(/C=C/c2ccc([N+](=O)[O-])cc2)nc2ccccc12 | 61% | –
8 | O=c1[nH]c(/C=C/c2cc(Br)ccc2O)nc2ccccc12 | 63% | –
9 | COc1ccc(-c2nc3ccccc3c(=O)[nH]2)cc1C | 49% | –
10 | Cc1cccc(-c2nc(O)c3ccccc3n2)c1 | 43% | –
11 | CN(C)C(=O)Cc1ccc2[nH]c(=O)c3ccccc3c2c1 | – | IC50 (Tubulin): Not Active
